Here are results for 21 molecules from paper PMC11181486, “Nonsymmetrically Substituted 1,1′-Biphenyl-Based Small Molecule Inhibitors of the PD-1/PD-L1 Interaction” (ACS Medicinal Chemistry Letters, 2024).

The target in data set [1] is T1, PD-1/PD-L1 (Homo sapiens, UniProt Q9NZQ7). Nature of the data set: Homogeneous time-resolved fluorescence (HTRF) PD-1/PD-L1 assay (CisBio kit). Conditions: for remaining activity at 0.005 µM: 2 h, read-out: HTRF Fraction of the undissociated protein complex. It counts as binding. Further details: Tag1 or Tag2 (kit's undisclosed tag); purchased CisBio. On the procedure:
The certified CisBio kit was used to conduct the HTRF assay, adhering to the manufacturer’s guidelines. The assay setup comprised hPD-1, hPD-L1, anti-Tag1 tagged with Europium cryptate (HTRF donor), and anti-Tag2 tagged with XL665 (HTRF acceptor). The experiments utilized final concentrations of 5 nM hPD-L1 and 50 nM hPD-1 in a 20 μL total volume performed in triplicate. Per the CisBio instructions, all components were combined, the plate was incubated at ambient temperature for 2 h, and the TR-FRET (time-resolved fluorescence energy transfer) was carried out using the Tecan Spark 20M. The negatives in the acquired data were subtracted for background, the positives were standardized, and then the data were averaged.
of 50 mM of the compound. Samples were then diluted to 50 nM and used for measurements.
Target sequence in this assay (Q9NZQ7 19-238 limits assumed): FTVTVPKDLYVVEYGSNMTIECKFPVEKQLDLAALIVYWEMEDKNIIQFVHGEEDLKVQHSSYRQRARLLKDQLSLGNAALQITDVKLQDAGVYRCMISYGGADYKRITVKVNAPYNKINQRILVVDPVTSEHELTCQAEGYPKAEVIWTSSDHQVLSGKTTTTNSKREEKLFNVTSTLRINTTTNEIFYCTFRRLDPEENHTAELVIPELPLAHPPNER
On the technique in general: In TR-FRET formats the signal depends on donor and acceptor labels being close together.

For data set [2], the target named is T1, PD-1/PD-L1. Put plainly: cell-based. Further details: host or cells: PD-L1+ aAPC/CHO-K1 cells; PD-1 effector Jurkat cells. On the procedure:
The PD-1/PD-L1 immune checkpoint bioassay (PD-1/PD-L1 Bioassay, Promega) was conducted according to the manufacturer’s protocol. PD-L1+ aAPC/CHO-K1 cells were seeded at a density of […] in 100 μL of medium [Ham’s F12, 10% fetal bovine serum (FBS)] in 96-well white flat-bottomed plates and incubated overnight at 37 °C in the presence of 5% CO2. The next day, the medium was removed, and serial dilutions of small molecule inhibitors were added at 40 μL per well in assay buffer (RPMI1640 + 1% FBS + 1% DMSO). […] The cells were cocultured for 6 h at 37 °C with 5% CO2 followed by a 5 min equilibration at room temperature. Bio-Glo Reagent (Promega) was prepared and added at 80 μL per well. After a 15 min incubation at room temperature, luminescence was measured using a Tecan Spark microplate reader. Data are presented as fold induction of luminescence relative to DMSO-treated cells. EC50 values were calculated using the log(inhibitor) vs response variable slope (four-parameter) analysis model with GraphPad Prism software.
Target sequence in this assay (Q9NZQ7 19-290): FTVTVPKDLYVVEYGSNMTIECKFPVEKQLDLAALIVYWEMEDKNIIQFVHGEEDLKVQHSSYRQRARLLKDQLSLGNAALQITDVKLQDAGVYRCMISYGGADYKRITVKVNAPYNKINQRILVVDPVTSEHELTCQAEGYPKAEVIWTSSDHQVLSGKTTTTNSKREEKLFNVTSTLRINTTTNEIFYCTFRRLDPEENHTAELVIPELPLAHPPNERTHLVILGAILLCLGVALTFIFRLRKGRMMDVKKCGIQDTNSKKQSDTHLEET

A short description of data set [3]: Solubility of the compounds (visual evaluation and A600 of dilutions). Type of data set: physicochemical. The conditions noted are these: for A600 measurement (averaged from 2 reps): absorbance at 600 nm, 96-well plate, blank 0.0472, values in parentheses unreliable (precipitate); for solubility: kinetic from dmso stock, dilutions from DMSO stock, visually evaluated. On the procedure:
compound was 500 nM). The dilutions were then visually evaluated according to the following […]
+++ clear solution, no precipitation
++ slight turbidity, no precipitate
+ visible turbidity, no precipitate.
+/- strong turbidity, no precipitation.
- visible precipitation and/or visible precipitation in the original 100% DMSO solution.
The dilutions prepared in this way were applied to a 96-well plate and the absorbance measured […]
at a wavelength of 600 nm.
Table S2, Blank of 10 Measurements.
Table S2. Solubility of the compounds

The target of the next data set is T2, hPD-L1 (human PD-L1) (Homo sapiens, UniProt Q9NZQ7).
T2 construct: The human PD-L1 IgV domain (residues 18–134, C-terminal His-tag) was expressed and purified; His-tag (C); made in house
T2 sequence (Q9NZQ7 18-134): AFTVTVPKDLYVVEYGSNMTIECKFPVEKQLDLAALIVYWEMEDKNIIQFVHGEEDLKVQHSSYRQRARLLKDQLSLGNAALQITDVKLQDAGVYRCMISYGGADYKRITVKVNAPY
Nature of the data set: 1H NMR titration with hPD-L1. It counts as binding. Conditions: molar ratio protein to compound 1:1. As for the experimental part: Representative molecules were evaluated for their interaction with PD-L1 by means of an ^1H NMR titration experiment.

The next data set has as its target T3, hPD-1/hPD-L1 complex (Homo sapiens, UniProt Q9NZQ7).
T3 construct: The human PD-L1 IgV domain (residues 18–134, C-terminal His-tag) was expressed and purified; His-tag (C); made in house
Put plainly: PD-1/PD-L1 NMR-based antagonist-induced dissociation assay (AIDA). It counts as binding. The conditions noted are these: complex of hPD-1/hPD-L1 with compound, 1:1 molar ratio protein to compound. On the procedure:
In addition, we performed a PD-1/PD-L1 NMR-based antagonist-induced dissociation assay (AIDA).[42],[43] The AIDA assay was performed by adding a slight molar excess of PD-L1 to PD-1, which causes ^1H NMR signals to broaden corresponding to complex formation (Figure 2). […] However, in Figure 2 (purple), these are obscured by the sharper NMR signals of monomeric PD-1 released from the PD-L1/PD-1 complex.
Figure 2 NMR-based AIDA assay showing that a compound displaces PD-1 from PD-L1.

For data set [4], the target named is T1, PD-1/PD-L1. Further details: host or cells: PD-L1+ aAPC/CHO-K1 cells; PD-1 effector Jurkat cells. The conditions noted are these: Figure S2B; ref Koblish et al.; cited from earlier work.
Target sequence in this assay (Q9NZQ7 19-290): as the sequence (Q9NZQ7 19-290) above
Setting [5] is: at the 5 nM concentration of the inhibitor, 5 nM hPD-L1, 50 nM hPD-1.
Setting [6] is: PD-L1+ aAPC/CHO-K1 cells cocultured 6 h with PD-1 effector Jurkat cells, read-out: PD-1/PD-L1 blockade, NFAT reporter bioassay EC50.

Like-named read-outs stand apart in the source and are kept apart here.

T3 sequence (Q9NZQ7 18-134, one chain of several): as the sequence (Q9NZQ7 18-134) above

In the case of `Cc1c(COc2cc(OCc3cccc(C#N)c3)c(CN3C[C@H](O)C[C@@H]3C(=O)O)cc2Cl)cccc1-c1ccc2c(c1)OCCO2` [BMS-1166, reference compound], the “HTRF Fraction of the undissociated protein complex” value on PD-1/PD-L1 [1] (setting [5]) is given as 0.59.
Consider `Cc1c(NC(=O)c2ccc(CNCCO)cn2)cccc1-c1cccc(NC(=O)c2ccc(CNCCO)cn2)c1C` [Cmpd A, reference compound], for which the remaining activity at 0.005 µM at PD-1/PD-L1 [1] (setting [5]) turned out to be 18%. Moreover, the EC50 at PD-1/PD-L1 [2] (setting [6]) was 14.7 nM.
As for `Cc1c(NC(=O)c2ccc(CN[C@@H]3CCC[C@H]3O)cn2)cccc1-c1cccc(NC(=O)c2ccc(CN(C)CCO)cn2)c1C` [Compound 1], in data set [3], the “A600 measurement (averaged from 2 reps)” value came to 0.5138 and the solubility is under 500 µM.
For `Cc1c(NC(=O)c2ccc(CN[C@@H](C)CO)cn2)cccc1-c1cccc(NC(=O)c2ccc(CN(C)CCO)cn2)c1C` [Compound 2], in data set [3], the “A600 measurement (averaged from 2 reps)” value worked out at 0.4023 and the solubility is under 500 µM. In addition, on PD-1/PD-L1 [1], the half-inhibitory concentration (IC50) was 1.46 nM. For the same molecule, at PD-1/PD-L1 [1] (setting [5]), the remaining activity at 0.005 µM came to 42%. In addition, the EC50 at PD-1/PD-L1 [2] (setting [6]) was 21.8 nM.
For the molecule `Cc1c(NC(=O)c2ccc(CN[C@@H](C)CO)cn2)cccc1-c1cccc(NC(=O)c2ccc(CN(C)CCO)cn2)c1C.Cl.Cl.Cl` [Compound 2a], in data set [3], the “A600 measurement (averaged from 2 reps)” value came to 0.1517 and the solubility is under 500 µM. The EC50 at PD-1/PD-L1 [2] (setting [6]) was determined as 25 nM.
On to `Cc1c(NC(=O)c2ccc(CNCCCO)cn2)cccc1-c1cccc(NC(=O)c2ccc(CN(CCO)CCO)cn2)c1C` [Compound 3], for which, in data set [3], the “A600 measurement (averaged from 2 reps)” value came out at 0.2786 and the solubility was under 500 µM. The molecule further had an EC50 on PD-1/PD-L1 [2] of about 200 nM. For the same molecule, the EC50 on PD-1/PD-L1 [2] (setting [6]) stood at 251 nM.
For the molecule `Cc1c(NC(=O)c2ccc(CN[C@@H]3CCC[C@H]3O)cn2)cccc1-c1cccc(NC(=O)c2ccc(CN(CCO)CCO)cn2)c1C` [Compound 4], in data set [3], the “A600 measurement (averaged from 2 reps)” value was determined as 0.2271 and the solubility was under 500 µM.
Consider `Cc1c(NC(=O)c2ccc(CNCCCO)cn2)cccc1-c1cccc(NC(=O)c2ccc(CN(C)C(CO)CO)cn2)c1C` [Compound 5], for which, in data set [3], the “A600 measurement (averaged from 2 reps)” value is reported as 0.04735 and the solubility is under 500 µM. In addition, the EC50 at PD-1/PD-L1 [2] is about 200 nM. On PD-1/PD-L1 [2] (setting [6]), the EC50 amounted to 110 nM.
`COC(=O)[C@H](C)NCc1ccc(C(=O)Nc2cccc(-c3cccc(NC(=O)c4ccc(CN5CCCC5)cn4)c3C)c2C)nc1` [Compound 6]: in data set [3], the “A600 measurement (averaged from 2 reps)” value was 0.0627 and the solubility is under 500 µM.
As for `Cc1c(NC(=O)c2ccc(CNCCCO)cn2)cccc1-c1cccc(NC(=O)c2ccc(CN(C)CCO)cn2)c1C` [Compound 7], in data set [3], the “A600 measurement (averaged from 2 reps)” value was 0.3466 and the solubility was under 500 µM.
`Cc1c(NC(=O)c2ccc(CN(C)CCO)cn2)cccc1-c1cccc(NC(=O)c2ccc(CN(CCO)CCO)cn2)c1C` [Compound 8]: in data set [3], the “A600 measurement (averaged from 2 reps)” value turned out to be 0.459 and the solubility was under 500 µM.
As for `Cc1c(NC(=O)c2ccc(CNCCCO)cn2)cccc1-c1cccc(NC(=O)c2ccc(CN3CCC(O)CC3)cn2)c1C` [Compound 9], the “A600 measurement (averaged from 2 reps)” value in data set [3] is 0.09395. Further, the solubility in data set [3] was under 500 µM. Moreover, the remaining activity at 0.005 µM at PD-1/PD-L1 [1] (setting [5]) turned out to be 26%. In addition, the EC50 is over 180 nM at PD-1/PD-L1 [2] and 188 nM on PD-1/PD-L1 [2] (setting [6]).
On to `Cc1c(NC(=O)c2ccc(CN[C@@H](C)CO)cn2)cccc1-c1cccc(NC(=O)c2ccc(CN3CCC(O)CC3)cn2)c1C` [Compound 10], for which, in data set [3], the “A600 measurement (averaged from 2 reps)” value is 0.1308 and the solubility is under 500 µM. The remaining activity at 0.005 µM on PD-1/PD-L1 [1] (setting [5]) is 30%. On PD-1/PD-L1 [2], this molecule returned an EC50 of over 180 nM. Further, the EC50 on PD-1/PD-L1 [2] (setting [6]) was 287 nM.
On the same counts, the results for `Cc1c(NC(=O)c2ccc(CN[C@@H]3CCC[C@H]3O)cn2)cccc1-c1cccc(NC(=O)c2ccc(CN3CCC(O)CC3)cn2)c1C` [Compound 11] are 0.1117, under 500 µM, 43%, over 180 nM and 553 nM.
As for `Cc1c(NC(=O)c2ccc(CNCCCO)cn2)cccc1-c1cccc(NC(=O)c2ccc(CN[C@@H]3CCC[C@H]3O)cn2)c1C` [Compound 12], in data set [3], the “A600 measurement (averaged from 2 reps)” value amounted to 0.0476 and the solubility was over 500 µM.
For `Cc1c(NC(=O)c2ccc(CN[C@@H](C)CO)cn2)cccc1-c1cccc(NC(=O)c2ccc(CN[C@@H]3CCC[C@H]3O)cn2)c1C` [Compound 13], in data set [3], the “A600 measurement (averaged from 2 reps)” value is on record as 0.1827 and the solubility was under 500 µM.
Regarding `Cc1c(NC(=O)c2ccc(CNCCCO)cn2)cccc1-c1cccc(NC(=O)c2ccc(CN[C@@H](C)CO)cn2)c1C` [Compound 14], at hPD-L1 (human PD-L1), the “effect on hPD-L1 1H NMR lines (broadening)” value (“effect on hPD-L1 1H NMR lines” for short) was “oligomerization”. In addition, in data set [3], the “A600 measurement (averaged from 2 reps)” value is given as 0.05315 and the solubility was over 500 µM.
Regarding `Cc1c(NC(=O)c2ccc(CNCCO)cn2)cccc1-c1cccc(NC(=O)c2ccc(CNCCNS(C)(=O)=O)cn2)c1C` [Compound 16], in data set [3], the “A600 measurement (averaged from 2 reps)” value is 0.0494 and the solubility is over 500 µM.
For `Cc1c(NC(=O)c2ccc(CNCCO)cn2)cccc1-c1cccc(NC(=O)c2ccc(CNCCCNS(C)(=O)=O)cn2)c1C` [Compound 17], the “effect on hPD-L1 1H NMR lines” value on hPD-L1 (human PD-L1) is recorded as “oligomerization”. Also, in data set [3], the “A600 measurement (averaged from 2 reps)” value was 0.2217 and the solubility was under 500 µM. Moreover, the EC50 on PD-1/PD-L1 [2] (setting [6]) was 65.8 nM.
For the molecule `Cc1c(NC(=O)c2ccc(CNCCO)cn2)cccc1-c1cccc(NC(=O)c2ccc(CNCCCNS(C)(=O)=O)cn2)c1C.Cl.Cl.Cl.Cl` [Compound 17a], the “AIDA rescue percentage of the PD-1 signal” value at hPD-1/hPD-L1 complex is 100%. For the same molecule, the “effect on hPD-L1 1H NMR lines” value at hPD-L1 (human PD-L1) is “oligomerization”. Moreover, in data set [3], the “A600 measurement (averaged from 2 reps)” value came to 0.2848 and the solubility was under 500 µM. Besides, half-maximal inhibition at PD-1/PD-L1 [1] (IC50) required 3.06 nM. At PD-1/PD-L1 [1] (5 nM inhibitor concentration), the “dissociation of the PD-1/PD L1 complex (HTRF)” value was determined as 83% and the “undissociated complex in the HTRF assay” value is 17%. In addition, the EC50 at PD-1/PD-L1 [2] (setting [6]) turned out to be 76.3 nM.
As to `Cc1c(Nc2nccc3cc(CN4CC[C@@H](O)C4)cnc23)cccc1-c1cccc(-c2nc3cc(CN4CC[C@@H](C(=O)O)C4)cc(C#N)c3o2)c1C` [INCBO86550], at PD-1/PD-L1 [4], the EC50 was 21.4 nM.

For orientation: solubility means the concentration that dissolves in the medium under given conditions. Read a high solubility as a readily soluble substance. For orientation: IC50 means the concentration that inhibits the measured activity by half. High values mean lower potency, low ones higher potency.
